System: HCC-1428
Experiment: Cell proliferation assay, HCC-1428
Assay type: cell-based
Conditions: Homo sapiens, HCC1428; HCC-1428, type Lu, 72 h
Protocol: The cells were seeded at 5×10^3 to 1.5×10^4 cells (depending on cell type) in each well of a 96-well plate in 100 μL of fresh culture medium and adherent cells were allowed to attach overnight. The stock solutions of the compounds were diluted in cell culture medium to obtain eight concentrations of each drug, ranging from 1 nM to 30 μM and DMSO at less than 1% v/v was used as a negative control. The resulting drug solutions were transferred onto the cells. After 72 h of treatment, 20 μl of CellTiter 96® AQueous reagent was added into each well of the 96-well assay plates and the plate was incubated at 37° C. for 1-4 hours in a humidified, 5% CO2 atmosphere. Then the absorbance of each well was recorded at 490 nm using a 96-well plate reader. In most cases, the assay was performed in triplicate and the results were presented as half maximal inhibitory concentration (IC50).

Compound `O=C(/C=C\n1cnc(-c2cc(C(F)(F)F)cc(C(F)(F)F)c2)n1)NNc1cnccn1` [Compound I-3, (Z)-3-(3-(3,5-bis(trifluoromethyl)phenyl)-1H-1,2,4-triazol-1-yl)-N′-(pyrazin-2-yl)acrylohydrazide] has an IC50 of 10.4 µM.
